Source: patent publication US20210161900A1, “COMPOSITIONS AND METHODS FOR THE TREATMENT OF SENESCENT TUMOR CELLS” (Duke University, priority 2018, published 2021)

Tests used:
HCC827 and H1650 cells = experiment: Cleaved caspase-3 immunoblot in proliferating or palbociclib-treated senescent NSCLC cells treated with PAR1 inhibitors; assay type: cell-based, human; conditions: for caspase-3 cleavage: HCC827 and H1650, palbociclib (0.5 μM, 7 days)-treated senescent cells, increasing doses of PAR1 inhibitor
Protocol: Because THBD is thought to signal primarily through PAR1, it was first tested whether, like THBD depletion, pharmacological PAR1 inhibition results in senescent cell death. For this, proliferating or palbociclib-treated senescent HCC827 and H1650 cells were treated with increasing doses of vorapaxar or SCH79797 and immunoblotted for cleaved caspase-3.

MDA-MB-231 cells = experiment: Cleaved caspase-3 immunoblot in proliferating and palbociclib-induced senescent MDA-MB-231 cells treated with vorapaxar; assay type: cell-based
Protocol: Proliferating and palbociclib-induced senescent MDA-MB-231 cells were treated with increasing doses of vorapaxar. Following treatment, cells were immunoblotted for cleaved caspase-3.

[1] = tested on: THBD in primary human bronchial epithelial (HBE) cells; experiment: Gene expression profiling of erlotinib-induced senescent versus proliferating HBE cells; assay type: cell-based
From the text: Cell Res, 2018. 28(6): p. 625-643; Xiang, H., et al., UHRF1 is required for basal stem cell proliferation in response to airway injury. Cell Discov, 2017. 3: p. […] Cell Res, 2018. 28(6): p. 625-643).

NSCLC = conditions: monotherapy for NSCLC; cited from earlier work

CC(C)c1ccc(Cn2ccc3c4c(N)nc(NC5CC5)nc4ccc32)cc1 [SCH79797]
caspase-3 cleavage (HCC827 and H1650 cells): dose-dependent increase

CCOC(=O)N[C@@H]1CC[C@@H]2[C@@H](C1)C[C@H]1C(=O)O[C@H](C)[C@H]1[C@H]2/C=C/c1ccc(-c2cccc(F)c2)cn1 [vorapaxar]
caspase-3 cleavage (HCC827 and H1650 cells): dose-dependent increase
lowest dose inducing caspase-3 cleavage (HCC827 and H1650 cells; combined with palbociclib): 25 nM
caspase-3 cleavage, senescent cells (MDA-MB-231 cells; palbociclib-induced senescent MDA-MB-231, increasing doses of vorapaxar (50 nM-1 μM), 24 h): dose-dependent increase
caspase-3 cleavage, proliferating cells (MDA-MB-231 cells; proliferating MDA-MB-231, increasing doses of vorapaxar): minimal increase

C#Cc1cccc(Nc2ncnc3cc(OCCOC)c(OCCOC)cc23)c1 [erlotinib]
THBD gene expression in senescent versus proliferating cells [1]: four-fold increase

CC(=O)c1c(C)c2cnc(Nc3ccc(N4CCNCC4)cn3)nc2n(C2CCCC2)c1=O [palbociclib]
adverse side effects (NSCLC): neutropenia and leukopenia
